What follows are compounds tested on NAD(P)H oxidases (NOX) in HL-60 cells (assay: Assay of NOX activity: cytochrome C reduction in PMA-stimulated differentiated HL-60 cells). Conditions: 100 U/ml superoxide dismutase, used as a control in some experiments.
Type: cell-based, human
Method: (§1) Measurement of cytochrome C-reduction was used to assess the NOX-activity in HL-60 cells.
(§2) The human acute myeloid leukemia cell line HL-60 (ECACC 98070106) was cultured in RPMI 1640 (Biochrom, Berlin, Germany) supplemented with 5% heat-inactivated calf serum, 2 mM glutamine (GLUTAMAX, Invitrogen, Karlsruhe, Germany), 100 U/ml penicillin (Sigma, Taufkirchen, Germany), and 100 μg/ml streptomycin (Sigma, Taufkirchen, Germany) at 37° C. under a humidified atmosphere of 5% CO2. Cells were maintained at 0.1−2.0×10^6 cells/ml. To induce myeloid differentiation, the cells were seeded to a density of 0.5×10^6 cells/ml and cultivated for 6 days in medium containing 1.25% (v/v) dimethylsulfoxide (DMSO). […]
(§3) E550 and E540 were measured once before stimulation of the cells on a micro-plate reader (Multiskan Spektrum, Thermo Electron Corporation, Dreieich, Germany). E540 was the isosbestic point and used to normalize absorbance at 550 nm (E550/E540). […]
(§4) The plate was shaken for 10 sec in the micro-plate reader and then incubated at 37° C. under a humidified atmosphere of 5% CO2. E550 and E540 were measured after 60 and 120 min.
(§5) For calculation, the absorbance at 550 nm was normalized to absorbance at the isosbestic point at 540 nm for each individual well. […] NOX-activities were expressed as % of the activity in PMA-stimulated control cells. […]
“SOD: superoxide dismutase from bovine erythrocytes, EC1.15.1.1, used as a control” was tested, and the “Inhibition of the signal by SOD” value was over 95%.

The compounds below were run against NAD(P)H oxidases (NOX) in HL-60 cells (Homo sapiens, UniProt P04839) in the same assay as above. Conditions: HL-60; DPI final conc. 10 μM, control inhibitor; 'usually'; read-out: Residual activity of DPI-treated cells (NOX activity as % of the activity in PMA-stimulated control cells).
Chain of NAD(P)H oxidases (NOX) in HL-60 cells (Homo sapiens, UniProt P04839) (P04839 whole entry): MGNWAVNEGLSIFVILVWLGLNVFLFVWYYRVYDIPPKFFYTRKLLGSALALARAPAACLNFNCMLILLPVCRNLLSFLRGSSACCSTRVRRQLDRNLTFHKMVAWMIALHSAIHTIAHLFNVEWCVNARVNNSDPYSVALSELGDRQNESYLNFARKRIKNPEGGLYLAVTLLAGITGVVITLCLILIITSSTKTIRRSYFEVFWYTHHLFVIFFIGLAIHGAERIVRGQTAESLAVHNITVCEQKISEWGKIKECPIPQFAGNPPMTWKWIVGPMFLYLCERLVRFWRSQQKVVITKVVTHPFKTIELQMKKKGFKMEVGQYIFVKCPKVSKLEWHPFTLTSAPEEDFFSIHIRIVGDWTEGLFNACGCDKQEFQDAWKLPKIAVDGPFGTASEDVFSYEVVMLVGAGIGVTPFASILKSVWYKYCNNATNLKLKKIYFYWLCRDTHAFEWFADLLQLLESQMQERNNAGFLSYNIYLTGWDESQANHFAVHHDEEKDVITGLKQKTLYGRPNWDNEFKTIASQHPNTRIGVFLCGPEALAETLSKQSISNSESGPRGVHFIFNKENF
Type: cell-based
Method: as §1, §2, §3, §4, §5
`c1ccc2c(c1)[I+]c1ccccc1-2` [DPI, Diphenyleneiodonium chloride] showed an activity at 10 µM of under 10%.

The compounds below were run on platelets (assay: Inhibition of thrombin-induced (TRAP-6) platelet activation: P-Selectin expression on washed platelets, flow cytometry). Conditions: Homo sapiens, 5 μmol/l compound, 1 min pre-incubation, washed platelets stimulated 2 min with TRAP-6, read-out: % Inhibition of activation (percent reduction of TRAP-6 induced P-Selectin expression).
Type: cell-based
Method: Expression of P-Selectin on the surface of platelets was used as a marker of platelet activation.
All experiments were performed with washed platelets (PRP). Fresh venous blood from healthy volunteers (40 ml) was collected into 10 ml of 5-fold CCD-solution (7 mM citric acid, 100 mM trisodium citrate, 140 mM glucose, 15 mM EGTA as anti-coagulant, pH 6.5). Platelet rich plasma was prepared by centrifugation at 300 g for 20 min. The supernatant was collected and incubated for 10 min at room temperature. Platelets were pelleted from the supernatant by a second centrifugation step at 500 g for 20 min. The pellet was resuspended in 5 ml HEPES buffer (145 in M NaCl, 5 mM KCl, 1 in M MgCl2, 10 mM glucose, 10 mM HEPES, pH 7.4). Platelet concentration was adjusted to 3×10^8 platelets/ml with HEPES buffer.
Washed platelets (0.2 ml) were silenced for 1 h at room temperature in siliconised reaction tubes. After pre-incubation with compounds of example 1-11 for 1 min the washed platelets were stimulated for 2 min with thrombin receptor activating peptide (TRAP-6, BACHEM Biochemicals, Heidelberg, Germany).
As a positive control, 0.2 ml of washed platelets were pre-incubated with 10 μM of the NO-releasing compound sodium nitroprussid (SNP, Sigma, Deisenhofen).
After incubation, 20 μl of the sample was pipetted to 10 μl of FITC-labelled anti-CD62P antibody (DAKO, Glostrup, Denmark) and incubated for 15 min in the dark. After incubation the samples were diluted with 1.5 ml of phosphate buffered saline and immediately measured on a cytometer.
For background substraction, one sample was incubated with 10 μl of FITC-labelled un-specific mouse IgG1 (DAKO, Glostrup, Denmark).
For cytometry the Becton-Dickinson FACS-Calibur instrument (settings: FSC: E00; SSC: 337 V; FL-1:600 V) was used. For each measurement 20000 cells were analysed. Results were obtained as mean fluorescence intensity (MFI) calculated using the CellQuest program (Ver. 1.0; Becton-Dickinson).
Inhibition of platelet activation is given as percent reduction of TRAP-6 induced P-Selectin expression in the presence of 5 μmol/l of examples 1-11: […]
`c1ccc(Cn2nnc3c(Sc4nc5ccccc5o4)ncnc32)cc1` [Example 1, 3-benzyl-7-(2-benzoxazolyl)thio-1,2,3-triazolo[4,5-d]pyrimidine] showed an inhibition at 5 µM of 49%.
For `c1ccc(Cn2nnc3c(Sc4ccccn4)ncnc32)cc1` [Example 2, 3-benzyl-7-(2-pyridyl)thio-1,2,3-triazolo-[4,5-d]pyrimidine], the inhibition at 5 µM was 34%.
For `c1ccc(Cn2nnc3c(Sc4ncco4)ncnc32)cc1` [Example 3, 3-benzyl-7-(2-oxazolyl)thio-1,2,3-triazolo[4,5-d]pyrimidine], the inhibition at 5 µM was 55%.
In the case of `c1ccc(Cn2nnc3c(Sc4nccs4)ncnc32)cc1` [Example 4, 3-benzyl-7-(2-thiazolyl)thio-1,2,3-triazolo[4,5-d]pyrimidine], the inhibition at 5 µM is reported as 45%.
Compound `c1ccc(Cn2nnc3c(Sc4ncc[nH]4)ncnc32)cc1` [Example 5, 3-benzyl-7-(2-imidazolyl)thio-1,2,3-triazolo[4,5-d]pyrimidine] has an inhibition at 5 µM of 21%.
For `Cc1nc(Sc2nc3ccccc3o2)c2nnn(Cc3ccccc3)c2n1` [Example 6, 3-benzyl-7-(2-benzoxazolyl)thio-5-methyl-1,2,3-triazolo[4,5-d]pyrimidine], the inhibition at 5 µM was 39%.
In the case of `Cn1nnc2c(Sc3nc4ccccc4o3)ncnc21` [Example 8, 7-(2-benzoxazolyl)thio-3-methyl-1,2,3-triazolo[4,5-d]pyrimidine], the inhibition at 5 µM is reported as 38%.
`c1ccc(-n2nnc3c(Sc4nc5ccccc5o4)ncnc32)cc1` [Example 9, 7-(2-benzoxazolyl)thio-3-phenyl-1,2,3-triazolo[4,5-d]pyrimidine] gave an inhibition at 5 µM of 44%.
Work on `COc1ccc(Cn2nnc3c(Sc4nc5ccccc5o4)ncnc32)cc1` [Example 10, 7-(2-benzoxazolyl)thio-3-p-methoxybenzyl-1,2,3-triazolo[4,5-d]pyrimidine] yielded an inhibition at 5 µM of 60%.
`Clc1ccccc1Cn1nnc2c(Sc3nc4ccccc4o3)ncnc21` [Example 11, 7-(2-benzoxazolyl)thio-3-o-chlorobenzyl-1,2,3-triazolo[4,5-d]pyrimidine] gave an inhibition at 5 µM of 80%.

Reference: patent US8236809B2, “Substituted 1,2,3-triazolopyrimidines for the inhibition of NAD(P)H oxidases and platelet activation” (Vasopharm GmbH, priority 2004, dated 2012)
